# In the supplement of paper PMC10307832:
# Columns and labels:
# Test in all cases: relative viability (nuclei count vs DMSO), 5 days (fraction); higher = more cells survive
# ABC-1 = tested on: ABC-1
# Summary of the method: (§1)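 After 5 days of treatment, lung cancer cells in 1536-well plates were fixed and stained in a single step (final 0.05% Triton X-100, 1% formaldehyde, 1 ug/ml Hoechst) and their nuclei counted on 4× images. Treatment had been applied by pin tool the day after seeding as one drug alone or as a fixed anchor-drug dose with five library-drug doses (not always all listed) in √10 steps. Relative viability is the nuclei count of treated wells divided by that of vehicle wells, and values are medians of duplicate plates.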
# CAL-12T = tested on: CAL-12T
# Summary of the method: as §1
# COR-L 105 = tested on: COR-L 105
# Summary of the method: as §1
# ChaGo-K-1 = tested on: ChaGo-K-1
# Summary of the method: as §1
# EMC-BAC-2 = tested on: EMC-BAC-2
# Summary of the method: as §1
# EPLC-272H = tested on: EPLC-272H
# Summary of the method: as §1
# HCC-15 = tested on: HCC-15
# Summary of the method: as §1
# HCC-78 = tested on: HCC-78
# Summary of the method: as §1
# HOP-62 = tested on: HOP-62
# Summary of the method: as §1
# LXF-289 = tested on: LXF-289
# Summary of the method: as §1
# NCI-H1666 = tested on: NCI-H1666
# Summary of the method: as §1
# NCI-H1755 = tested on: NCI-H1755
# Summary of the method: as §1
# NCI-H1915 = tested on: NCI-H1915
# Summary of the method: as §1
# NCI-H1975 = tested on: NCI-H1975
# Summary of the method: as §1
# NCI-H1993 = tested on: NCI-H1993
# Summary of the method: as §1
# NCI-H2023 = tested on: NCI-H2023
# Summary of the method: as §1
# NCI-H2085 = tested on: NCI-H2085
# Summary of the method: as §1
# NCI-H2126 = tested on: NCI-H2126
# Summary of the method: as §1
# NCI-H3122 = tested on: NCI-H3122
# Summary of the method: as §1
# NCI-H322M = tested on: NCI-H322M
# Summary of the method: as §1
# NCI-H358 = tested on: NCI-H358
# Summary of the method: as §1
# NCI-H441 = tested on: NCI-H441
# Summary of the method: as §1
# NCI-H522 = tested on: NCI-H522
# Summary of the method: as §1
# UMC-11 = tested on: UMC-11
# Summary of the method: as §1
smiles,measurement,setting,value
COc1cc(N2CCC(C(N)=O)CC2)ccc1Nc1nc(N)c(Cl)c(Nc2ccccc2S(=O)(=O)C(C)C)n1 [HG-5-88-01] + O=C(CCCCCCC(=O)Nc1ccccc1)NO [Vorinostat] (partner 1 µM),relative viability,ABC-1; first compound 0.04 µM,1.07
same,relative viability,ABC-1; first compound 0.1265 µM,1.48
same,relative viability,ABC-1; first compound 0.4 µM,1.04
same,relative viability,ABC-1; first compound 1.265 µM,1.04
same,relative viability,ABC-1; first compound 4 µM,0.715
same,relative viability,CAL-12T; first compound 0.04 µM,0.747
same,relative viability,CAL-12T; first compound 0.1265 µM,0.89
same,relative viability,CAL-12T; first compound 0.4 µM,0.623
same,relative viability,CAL-12T; first compound 1.265 µM,0.811
same,relative viability,CAL-12T; first compound 4 µM,0.49
same,relative viability,COR-L 105; first compound 0.04 µM,0.849
same,relative viability,COR-L 105; first compound 0.1265 µM,0.722
same,relative viability,COR-L 105; first compound 0.4 µM,0.847
same,relative viability,COR-L 105; first compound 1.265 µM,0.639
same,relative viability,COR-L 105; first compound 4 µM,0.59
same,relative viability,ChaGo-K-1; first compound 0.04 µM,0.75
same,relative viability,ChaGo-K-1; first compound 0.1265 µM,0.71
same,relative viability,ChaGo-K-1; first compound 0.4 µM,0.737
same,relative viability,ChaGo-K-1; first compound 1.265 µM,0.786
same,relative viability,ChaGo-K-1; first compound 4 µM,0.589
same,relative viability,EMC-BAC-2; first compound 0.04 µM,0.503
same,relative viability,EMC-BAC-2; first compound 0.1265 µM,0.442
same,relative viability,EMC-BAC-2; first compound 0.4 µM,0.354
same,relative viability,EMC-BAC-2; first compound 1.265 µM,0.518
same,relative viability,EMC-BAC-2; first compound 4 µM,0.448
same,relative viability,EPLC-272H; first compound 0.04 µM,0.497
same,relative viability,EPLC-272H; first compound 0.1265 µM,0.606
same,relative viability,EPLC-272H; first compound 0.4 µM,0.6
same,relative viability,EPLC-272H; first compound 1.265 µM,0.503
same,relative viability,EPLC-272H; first compound 4 µM,0.116
same,relative viability,HCC-15; first compound 0.04 µM,0.822
same,relative viability,HCC-15; first compound 0.1265 µM,0.916
same,relative viability,HCC-15; first compound 0.4 µM,0.761
same,relative viability,HCC-15; first compound 1.265 µM,0.833
same,relative viability,HCC-15; first compound 4 µM,0.786
same,relative viability,HCC-78; first compound 0.04 µM,0.467
same,relative viability,HCC-78; first compound 0.1265 µM,0.357
same,relative viability,HCC-78; first compound 0.4 µM,0.356
same,relative viability,HCC-78; first compound 1.265 µM,0.206
same,relative viability,HCC-78; first compound 4 µM,0.217
same,relative viability,HOP-62; first compound 0.04 µM,0.579
same,relative viability,HOP-62; first compound 0.1265 µM,0.799
same,relative viability,HOP-62; first compound 0.4 µM,0.611
same,relative viability,HOP-62; first compound 1.265 µM,0.728
same,relative viability,HOP-62; first compound 4 µM,0.668
same,relative viability,LXF-289; first compound 0.04 µM,0.93
same,relative viability,LXF-289; first compound 0.1265 µM,0.754
same,relative viability,LXF-289; first compound 0.4 µM,0.826
same,relative viability,LXF-289; first compound 1.265 µM,0.847
same,relative viability,LXF-289; first compound 4 µM,0.822
same,relative viability,NCI-H1666; first compound 0.04 µM,0.984
same,relative viability,NCI-H1666; first compound 0.1265 µM,1
same,relative viability,NCI-H1666; first compound 0.4 µM,0.975
same,relative viability,NCI-H1666; first compound 1.265 µM,0.92
same,relative viability,NCI-H1666; first compound 4 µM,0.828
same,relative viability,NCI-H1755; first compound 0.04 µM,0.79
same,relative viability,NCI-H1755; first compound 0.1265 µM,0.804
same,relative viability,NCI-H1755; first compound 0.4 µM,0.715
same,relative viability,NCI-H1755; first compound 1.265 µM,0.748
same,relative viability,NCI-H1755; first compound 4 µM,0.744
same,relative viability,NCI-H1915; first compound 0.04 µM,0.476
same,relative viability,NCI-H1915; first compound 0.1265 µM,0.525
same,relative viability,NCI-H1915; first compound 0.4 µM,0.525
same,relative viability,NCI-H1915; first compound 1.265 µM,0.57
same,relative viability,NCI-H1915; first compound 4 µM,0.386
same,relative viability,NCI-H1975; first compound 0.04 µM,0.734
same,relative viability,NCI-H1975; first compound 0.1265 µM,0.711
same,relative viability,NCI-H1975; first compound 0.4 µM,0.689
same,relative viability,NCI-H1975; first compound 1.265 µM,0.612
same,relative viability,NCI-H1975; first compound 4 µM,0.35
same,relative viability,NCI-H1993; first compound 0.04 µM,0.669
same,relative viability,NCI-H1993; first compound 0.1265 µM,0.976
same,relative viability,NCI-H1993; first compound 0.4 µM,0.721
same,relative viability,NCI-H1993; first compound 4 µM,0.644
same,relative viability,NCI-H2023; first compound 0.04 µM,0.764
same,relative viability,NCI-H2023; first compound 0.1265 µM,0.777
same,relative viability,NCI-H2023; first compound 0.4 µM,0.361
same,relative viability,NCI-H2023; first compound 1.265 µM,0.425
same,relative viability,NCI-H2023; first compound 4 µM,0.436
same,relative viability,NCI-H2085; first compound 0.04 µM,0.825
same,relative viability,NCI-H2085; first compound 0.1265 µM,0.846
same,relative viability,NCI-H2085; first compound 0.4 µM,0.729
same,relative viability,NCI-H2085; first compound 1.265 µM,0.791
same,relative viability,NCI-H2085; first compound 4 µM,0.758
same,relative viability,NCI-H2126; first compound 0.04 µM,0.653
same,relative viability,NCI-H2126; first compound 0.1265 µM,0.813
same,relative viability,NCI-H2126; first compound 0.4 µM,0.713
same,relative viability,NCI-H2126; first compound 1.265 µM,0.594
same,relative viability,NCI-H2126; first compound 4 µM,0.456
same,relative viability,NCI-H3122; first compound 0.04 µM,0.731
same,relative viability,NCI-H3122; first compound 0.1265 µM,0.438
same,relative viability,NCI-H3122; first compound 0.4 µM,0.195
same,relative viability,NCI-H3122; first compound 1.265 µM,0.218
same,relative viability,NCI-H3122; first compound 4 µM,0.158
same,relative viability,NCI-H322M; first compound 0.04 µM,0.864
same,relative viability,NCI-H322M; first compound 0.1265 µM,0.809
same,relative viability,NCI-H322M; first compound 0.4 µM,0.782
same,relative viability,NCI-H322M; first compound 1.265 µM,0.668
same,relative viability,NCI-H322M; first compound 4 µM,0.706
same,relative viability,NCI-H358; first compound 0.04 µM,0.666
same,relative viability,NCI-H358; first compound 0.1265 µM,0.602
same,relative viability,NCI-H358; first compound 0.4 µM,0.544
same,relative viability,NCI-H358; first compound 1.265 µM,0.155
same,relative viability,NCI-H358; first compound 4 µM,0.182
same,relative viability,NCI-H441; first compound 0.04 µM,0.779
same,relative viability,NCI-H441; first compound 0.1265 µM,0.736
same,relative viability,NCI-H441; first compound 0.4 µM,0.678
same,relative viability,NCI-H441; first compound 1.265 µM,0.865
same,relative viability,NCI-H441; first compound 4 µM,0.725
same,relative viability,NCI-H522; first compound 0.04 µM,0.923
same,relative viability,NCI-H522; first compound 0.1265 µM,0.855
same,relative viability,NCI-H522; first compound 0.4 µM,0.784
same,relative viability,NCI-H522; first compound 1.265 µM,0.667
same,relative viability,NCI-H522; first compound 4 µM,0.671
same,relative viability,UMC-11; first compound 0.04 µM,0.437
same,relative viability,UMC-11; first compound 0.1265 µM,0.442
same,relative viability,UMC-11; first compound 0.4 µM,0.354
same,relative viability,UMC-11; first compound 1.265 µM,0.33
same,relative viability,UMC-11; first compound 4 µM,0.288
